Laboratory results taken from patent publication US20250206773A1, “FORMS AND COMPOSITIONS OF SODIUM CHENODEOXYCHOLATE” (Syntis Bio, Inc., priority 2022, published 2025).
Where two headings read alike, the source gives them in different places.

Assays:
[1] = Polymorph screening: vapor diffusion onto solids; type: physicochemical
Experimental: Around 20 mg of NaCDC Form B were weighed into 1.6 mL HPLC vials. Each of the aforementioned vials was inserted individually into 40 mL vessels containing initially 0.5 mL of the corresponding solvent. The vessels were isolated from light and atmosphere and allowed to stand for 12 days, in a closed cabinet at 25° C. or in an oven at 50° C. After the experimental time, the majority of the samples remained solids/wet solids (experiments VDS02-12), which were harvested and analyzed by XRPD. […] All solids were analyzed by XRPD, and depending on the results obtained, some experiments were also analyzed by HPLC and TG/DSC.

[2] = Polymorph screening: solvent drop grinding; type: physicochemical; settings: grinding 10 min. at RT
Experimental: Around 20 mg of NaCDC Form B was ground together with 10 μL aliquots of the corresponding solvent for 10 minutes at RT using an agate mortar with pestle. When total evaporation of the solvent was observed, another aliquot of 10 μL solvent was added and this procedure was repeated until experiment completion time. All solids were analyzed by XRPD. For the experiments where phase transformation was observed via XRPD, additional analyses of TG/DSC and/or HPLC were performed.

[3] = type: physicochemical
Experimental: In-process stability of NaCDC Form B was evaluated under two conditions at reflux, as described in Table 1 below.

[4] = Intrinsic dissolution, USP rotating disk apparatus; type: physicochemical
Experimental: For the intrinsic dissolution studies, the following HPLC method was used: [table] Intrinsic dissolution profiles of NaCDC Form A and Form B were determined from a drug disk of constant surface area using a USP rotating disk apparatus in phosphate buffer (pH 7.4) at 37° C. […] A typical apparatus consisted of a punch and a die, whose base is attached to a surface plate. […] The punch was then inserted in the die cavity and the test material was compressed with a hydraulic press. A non-disintegrating compact of the material was formed in the die cavity with a single face of defined area exposed on the bottom of the die. The die assembly was then attached to a shaft with a holder and the surface plate was removed. The shaft holding the die assembly was positioned into the dissolution medium at a distance not less than 1.0 cm from the bottom of the vessel. In this procedure, fluid flow was generated by the rotation of the die. The amount of material dissolved was measured as a function of time. In particular, the cumulative amount dissolved at each time point was corrected for losses due to sampling. […] Method parameters are summarized below: [table]

[5] = Polymorph screening: slow evaporation; type: physicochemical
Experimental: Five stock solutions (with MeOH, water, 2,2,2-trifluoroethanol, MeOH:EtOAc (1:1 v/v) and MeOH:acetone (1:1 v/v)) were prepared with NaCDC Form B at RT. The final concentration of each solution was near that obtained from the Solubility Studies described in Example 8. Around 19-23 mg of NaCDC Form B was weighed into 1.6 mL HPLC vials (or 8 mL flask in the case of stock solutions with MeOH:EtOAc and MeOH:acetone) and dissolved in appropriate solvents at RT. In the case of the stock solution with water, around 40 mg NaCDC Form B was used. The experiments were kept at RT for 1 h with stirring (500 rpm) and then the solutions were filtered with 0.45 μm PTFE filters. During filtration of the stock solution with water, a foaming phenomenon was observed, and therefore, filtration was performed slowly and in several steps. The filtered solutions were then evaporated slowly under atmospheric pressure at 25° C. (experiments EV01-05) or at 50° C. (experiments EV06-09). After complete evaporation of the solvent, the solids were recovered and analyzed by XRPD. Depending on the results obtained from the XRPD analysis and also material availability, some experiments were analyzed by HPLC and TG/DSC.

[6] = n-BuOH/water (6/1), azeotropic reflux for 24 h
[7] = n-BuOH/water (6/1), azeotropic reflux
[8] = EV07, 2,2,2-Trifluoroethanol (TFE) 50.88 mg/mL, solids after 4 days at 50° C. and atm. pres.

HPLC purity (%) at 212 nm ([1]; VDS01, Methanol (MeOH) vapor, 25° C., 12 days, fine suspension, evap. at 30° C., 21 mbar, overnight): 89.99%
XRPD ([1]; VDS03, Ethyl acetate (EtOAc) vapor, diffusion at 25° C. after 12 days): SM, P.O.
HPLC purity (%) at 212 nm ([1]; VDS05, Ethanol (EtOH) vapor, diffusion at 50° C. after 12 days): 92.11%
XRPD ([1]; VDS06, 2-Propanol (2-PrOH) vapor, diffusion at 50° C. after 12 days): SM, P.O.
XRPD ([1]; VDS08, Diisopropyl ether vapor, diffusion at 50° C. after 12 days): SM, P.O.
HPLC purity (%) at 212 nm ([1]; VDS09, 2,2,2-Trifluoroethanol (TFE) vapor, diffusion at 50° C. after 12 days, slurry air-dried on filter paper): 90.89%
XRPD ([1]; VDS11, Acetonitrile (MeCN) vapor, diffusion at 50° C. after 12 days): SM, P.O.
HPLC purity (%) at 212 nm ([1]; VDS12, Methyl ethyl ketone (MEK) vapor, diffusion at 50° C. after 12 days): 93.65%
HPLC purity (%) at 212 nm ([2]; SDGR01, Ethanol (EtOH) 140 μL): 83.36%
HPLC purity (%) at 212 nm ([2]; SDGR02, 2-Propanol 80 μL): 81.26%
HPLC purity (%) at 212 nm ([2]; SDGR03, 2,2,2-Trifluoroethanol (TFE) 90 μL): 90.87%
XRPD ([2]; SDGR04, Diisopropyl ether 160 μL): SM, l.c.
HPLC purity (%) at 212 nm ([2]; SDGR05, MeOH:EtOAc (1:1 v/v) 260 μL): 82.04%
HPLC purity (%) at 212 nm ([2]; SDGR06, MeOH:Acetone (1:1 v/v) 240 μL): 85.56%
HPLC purity (%) at 212 nm ([2]; SDGR07, EtOH:MeCN (1:1 v/v) 190 μL): 86.54%
HPLC purity (%) at 212 nm ([2]; SDGR08, EtOH:n-Heptane (1:1 v/v) 220 μL): 90.36%
HPLC Purity % CDC (t24) ([3]; n-BuOH, reflux for 24 h): 99.9%
HPLC Purity % Cholic acid (t24) ([3]; n-BuOH, reflux for 24 h): 0.05%
HPLC Purity % CDC (t0) ([3]; n-BuOH, reflux): 99.9%
HPLC Purity % Cholic acid (t0) ([3]; n-BuOH, reflux): 0.05%
HPLC Purity % CDC (t24) [3, 6]: 99.92%
HPLC Purity % Cholic acid (t24) [3, 6]: 0.05%
HPLC Purity % CDC (t0) [3, 7]: 99.92%
HPLC Purity % Cholic acid (t0) [3, 7]: 0.05%
solid form after compression (XRPD) ([4]; 2 tons for 2 minutes): no change in solid form
IDR (intrinsic dissolution rate) ([4]; USP phosphate buffer pH 7.4, 37° C., 100 rpm, disk 0.5024 cm^2): 0.9218 mg · min^−1 · cm^−2
HPLC purity (%) at 212 nm ([5]; EV01, Methanol (MeOH) 100.80 mg/mL, solids after 4 days at 25-30° C. and atm. pres.): 91.70%
HPLC purity (%) at 212 nm ([5]; EV02, Water (H2O) 204.39 mg/mL, solids after 5 days at 25-30° C. and atm. pres.): 93.71%
HPLC purity (%) at 212 nm ([5]; EV03, 2,2,2-Trifluoroethanol (TFE) 50.88 mg/mL, solids after 7 days at 25-30° C. and atm. pres.): 88.27%
HPLC purity (%) at 212 nm ([5]; EV04, MeOH:EtOAc (1:1 v/v) 20.49 mg/mL, solids after 4 days at 25-30° C. and atm. pres.): 86.46%
HPLC purity (%) at 212 nm ([5]; EV05, MeOH:Acetone (1:1 v/v) 20.19 mg/mL, solids after 4 days at 25-30° C. and atm. pres.): 90.22%
HPLC purity (%) at 212 nm ([5]; EV06, Water (H2O) 204.39 mg/mL, solids after several hours (overnight) at 50° C. and atm. pres.): 93.24%
HPLC purity (%) at 212 nm [5, 8]: 91.69%
XRPD [5, 8]: S4 + SM, P.O.
HPLC purity (%) at 212 nm ([5]; EV08, MeOH:EtOAc (1:1 v/v) 20.49 mg/mL, solids after several hours (overnight) at 50° C. and atm. pres.): 71.43%
HPLC purity (%) at 212 nm ([5]; EV09, MeOH:Acetone (1:1 v/v) 20.19 mg/mL, solids after 4 days at 50° C. and atm. pres.): 87.00%
SMILES: C[C@H](CCC(=O)[O-])[C@H]1CC[C@H]2[C@@H]3[C@H](O)C[C@@H]4C[C@H](O)CC[C@]4(C)[C@H]3CC[C@]12C.[Na+] [Form B, sodium chenodeoxycholate]
